# In patent publication US20250188058A1, “NEW FORMS OF N-(5-((6,7-DIMETHOXYQUINOLIN-4-YL)OXY)PYRIDIN-2-YL)-1-PROPYL-4-(2,2,2-TRIFLUOROETHOXY)-1H-PYRAZOLE-3-CARBOXAMIDE HYDROCHLORIDE” (QURIENT CO., LTD., priority 2022, published 2025):
# Experiments:
# [1] = Humidity stress using crystalline material (HCl form C); assay type: physicochemical; details: 8 days
# Protocol: Approximately 25 mg of […] […] HCl form C material and were stressed for 8 days. All samples remained as […] HCl form C material.
# [2] = Dynamic Vapour Sorption (DVS) hygroscopicity; assay type: physicochemical; details: for total weight gain between 40-80% RH: DVS isothermal plot, 25° C.
# Protocol: Dynamic Vapour Sorption (DVS) was performed using a Hiden Analytical Instruments IGAsorp Vapour Sorption Balance. Approximately 30 mg of sample was placed into a wire-mesh vapour sorption balance pan, loaded into the IGAsorp vapour sorption balance and held at 25° C.±0.1° C. The sample was subjected to a step profile from o to 90% RH at 10% increments, followed by desorption from 90% RH to 0% RH at 10% increments. The equilibrium criterion was set to 99.0% step completion within a minimum of 60 minutes and a maximum of 5 hours for each increment. The weight change during the sorption cycle was monitored, allowing for the hygroscopic nature of the sample to be determined. The data collection interval was in seconds.
# [3] = Stress at 40° C./75% relative humidity for 15 days; assay type: physicochemical; details: 40° C./75% RH
# Protocol: HCl form C was stressed at 40° C./75% relative humidity for 15 days.
# Form A was stressed at 40° C./75% for 15 days. […] Solvent was not detected.
# [4] = Long term stability of Form A of Q702 HCl salt; assay type: physicochemical
# Protocol: Form A of […] HCl salt was tested for long term stability to 24 months.
# [5] = Pharmacokinetic study in plasma after oral administration; assay type: in vivo, male SD rats; details: 30 mg/kg; for AUC(0-t) / Cmax / Tmax / half-life: vehicle water
# Protocol: In this example, pharmacokinetic studies are performed using the form A of the HCl-salt of Q702 and the free base (FB) thereof in plasma, following oral administration of such form A and free base to male SD rats.
# Appropriate amounts of the form A of Q702 HCl or of free base were accurately weighed and mixed with appropriate volume of vehicle (water) to get a clear solution or uniform suspension. Male SD rats were dosed with a nominal dose of 30 mg/kg body weight. After dosing, 0.2 mL blood was collected per time point at time points o h, 0.083 h, 0.25 h, 0.5 h, 1 h, 2 h, 4 h, 8 h, 12 h, and 24 h. For such blood collection, blood was collected from the jugular vein or other suitable site of each animal into pre-chilled plastic microcentrifuged tubes containing 5 μL of 1000 IU heparin Na as anti-coagulant. Blood samples were processed for plasma by centrifugation at approximately 4° C., 3200 g for ten minutes. Plasma was collected and transferred into pre-labelled polypropylene tubes, snap-frozen over dry ice and kept at −60° C. or lower until LC-MS/MS-analysis was performed. LC-MS/MS methodology was performed using a calibration curve with at least 6 non-zero calibration standards.
# Plasma concentrations versus time were plotted and analysed by non-compartmental approaches using the Phoenix WinNonlin 6.3 software program. Related pharmacokinetic parameters were calculated according to dosing route, e. g.
# [6] = Humidity stress using amorphous material; assay type: physicochemical; details: 6 days
# Source text: X-ray amorphous material generated from freeze drying was exposed to various controlled humidity conditions for 6 days before analysis by XRPD. Both samples remained as amorphous material.
# [7] = Thermal stressing of amorphous Q702 HCl salt; assay type: physicochemical; details: 50° C., 7 days, under nitrogen in a sealed vial
# [8] = Solubility estimation by aliquot addition in solvents; assay type: physicochemical; details: organic solvent or mixture, thermodynamic from solid
# Protocol: The aliquot volumes were typically 100-1000 μL. Complete dissolution of the test material was determined by visual inspection. The solubility was estimated from these experiments based on the total solvent used to provide complete dissolution. […] From the infrared (IR) transmission data of the sample vials, dissolution and precipitation events were recorded as the point of complete transmission of IR and the onset of turbidity by IR respectively. […] Any recoverable solids were analyzed by XRPD. […] HCl salt was estimated in 9 solvent systems using the aliquot addition method.
# physchem = details: pH 6.8, water, thermodynamic from solid
# Protocol: (§1) Solubility was measured by a) solubility estimation by aliquot addition and b) HPLC: • a) Solubility estimation by aliquot-addition
# (§2) Samples were held at ambient temperature for 18 hours to maximize the chance of precipitation. Any recoverable solids were analyzed by XRPD.
# (§3) The HPLC method used to determine equilibrium solubility in a variety of solvents is outlined. […] A phenomenex Kinetex column was used with a particle size of 2.6 μm.
# [9] = Aqueous solubility of crystalline salts of Q702 (slurried overnight in deionised water, HPLC); details: crystalline salts slurried overnight in deionised water (pH = 6.8); for pH of solution: solution pH measured
# Protocol: as §1, §2, §3
molecule,measurement,setting,value
CCCn1cc(OCC(F)(F)F)c(C(=O)Nc2ccc(Oc3ccnc4cc(OC)c(OC)cc34)cn2)n1.Cl [HCl form C],% Weight change,[1]; 40° C./75% RH stress,−1.96%
same,weight loss,[1]; 40° C./75% RH,1.96%
same,% Weight change,[1]; 75% RH stress,−11.05%
same,weight loss,[1]; 75% RH stress,11.05%
same,% Weight change,[1]; 98% RH stress,+2.99%
same,% Weight change,"[1]; 98% RH stress, listed as Q702 HCl form C",2.99%
same,total weight gain between 40-80% RH,[2],0.7 % w/w
same,XRPD analysis of post DVS sample,[2]; after DVS analysis,no physical change in the sample was detected
same,"hygroscopicity, European Pharmacopoeia classification",[2]; based on DVS weight gain 40-80% RH,slightly hygroscopic
same,XRPD after stress,[3],remained as HCl salt form C
"CCCn1cc(OCC(F)(F)F)c(C(=O)Nc2ccc(Oc3ccnc4cc(OC)c(OC)cc34)cn2)n1.Cl [Q702 HCl form A, N-(5-((6,7-dimethoxyquinolin-4-yl)oxy)pyridin-2-yl)-1-propyl-4-(2,2,2-trifluoroethoxy)-1H-pyrazole-3-carboxamide hydrochloride]",total weight gain between 40-80% RH,[2]; hydrochloride,0.5 % w/w
same,XRPD after stress,[3]; hydrochloride,remained as form A
same,Assay,"[4]; 25 ± 2° C./60 ± 5% RH, 12 M",94.0%
same,Purity,"[4]; 25 ± 2° C./60 ± 5% RH, 12 M",100.0%
same,XRPD,"[4]; 25 ± 2° C./60 ± 5% RH, 12 M",Consistent
same,Assay,"[4]; 25 ± 2° C./60 ± 5% RH, 24 M",94.6%
same,Purity,"[4]; 25 ± 2° C./60 ± 5% RH, 24 M",99.9%
same,XRPD,"[4]; 25 ± 2° C./60 ± 5% RH, 24 M",Consistent
same,Assay,"[4]; 40 ± 2° C./75 ± 5% RH, 6 M",94.8%
same,Purity,"[4]; 40 ± 2° C./75 ± 5% RH, 6 M",99.9%
same,XRPD,"[4]; 40 ± 2° C./75 ± 5% RH, 6 M",Consistent
same,Assay,[4]; Initial,95.9%
same,Purity,[4]; Initial,99.9%
same,XRPD,[4]; Initial,Consistent
same,long term stability (XRPD results),[4]; tested to 24 months,stable to 24 months
same,plasma exposure level higher than that of the free base (mean AUC-values),[5]; versus Q702 free base,33%
same,AUC(0-t),"[5]; male, SD, rat, plasma",430 µg·h/mL
same,Cmax,"[5]; male, SD, rat, plasma",37000 ng/mL
same,Tmax,"[5]; male, SD, rat, plasma",2.83 h
same,half-life,"[5]; male, SD, rat, plasma",618 min
same,bioavailability,"[5]; male, SD, rat, plasma, test = form A of HCl-salt, ref = free base of Q702, read-out: relative bioavailability",144%
CCCn1cc(OCC(F)(F)F)c(C(=O)Nc2ccc(Oc3ccnc4cc(OC)c(OC)cc34)cn2)n1.Cl [amorphous Q702 HCl salt],XRPD after humidity stress,[6]; 40° C./75% RH stress,amorphous
same,XRPD after humidity stress,[6]; 59% RH stress,amorphous
same,XRPD after thermal stress,[7]; listed as Amorphous Q702 HCl salt,remained amorphous
same,XRPD after thermal stress,[7]; listed as amorphous,amorphous
"CCCn1cc(OCC(F)(F)F)c(C(=O)Nc2ccc(Oc3ccnc4cc(OC)c(OC)cc34)cn2)n1 [Q702 free base, N-(5-((6,7-dimethoxyquinolin-4-yl)oxy)pyridin-2-yl)-1-propyl-4-(2,2,2-trifluoroethoxy)-1H-pyrazole-3-carboxamide]",AUC(0-t),"[5]; male, SD, rat, plasma",323 µg·h/mL
same,Cmax,"[5]; male, SD, rat, plasma",33800 ng/mL
same,Tmax,"[5]; male, SD, rat, plasma",3.33 h
same,half-life,"[5]; male, SD, rat, plasma",654 min
"CCCn1cc(OCC(F)(F)F)c(C(=O)Nc2ccc(Oc3ccnc4cc(OC)c(OC)cc34)cn2)n1.Cl [Q702 HCl salt, N-(5-((6,7-dimethoxyquinolin-4-yl)oxy)pyridin-2-yl)-1-propyl-4-(2,2,2-trifluoroethoxy)-1H-pyrazole-3-carboxamide hydrochloride]",solubility,"[8]; Acetone, 20° C., read-out: Solubility Range",< 20 mg/mL
same,solubility,"[8]; Acetonitrile, 20° C., read-out: Solubility Range",< 20 mg/mL
same,solubility,"[8]; Dichloromethane, 20° C., read-out: Solubility Range",66 to 100 mg/mL
same,solubility,"[8]; Dimethyl sulfoxide, 20° C., read-out: Solubility Range",> 201 mg/mL
same,solubility,"[8]; Ethanol, 20° C., read-out: Solubility Range",67 to 101 mg/mL
same,solubility,"[8]; Ethyl acetate, 20° C., read-out: Solubility Range",< 20 mg/mL
same,solubility,"[8]; Methanol, 20° C., read-out: Solubility Range",49 to 66 mg/mL
same,solubility,"[8]; Methyl tert-butyl ether, 20° C., read-out: Solubility Range",< 20 mg/mL
same,solubility,"[8]; Tetrahydrofuran, 20° C., read-out: Solubility Range",< 20 mg/mL
same,solubility,"[8]; in four of the 9 solvents at ambient temperature, read-out: solubility",> 20 mg/mL
same,solubility,physchem,1950 µg/mL
Tosylate,Aq Solub,[9],0.026 mg/mL
same,pH of solution,[9],4.26
O=C(O)CCC(=O)C(=O)O [Ketoglutarate],pH of solution,[9],2.91
